Reference: patent US20210038587A1, “METHODS AND COMPOSITIONS FOR TREATING NON-ERK MAPK PATHWAY INHIBITOR-RESISTANT CANCERS” (BIOMED VALLEY DISCOVERIES, INC., priority 2013, published 2021)

Experiments:
[1] = tested on: A375, MIAPaCa-2, HCT116, Colo205, HT-29, and AN3Ca cells; assay: Reverse Phase Protein Analysis (RPPA), all six cell lines; assay type: cell-based; conditions: 10 μM, 6 hours
Procedure: Control wells were treated with DMSO at 0.1% (v/v) for 6 hours prior to cell lysate generation. Samples were then analyzed using reverse-phase protein microarray technology (Theranostics Health).
Cell lines with common alterations in BRAF and RAS were assayed: BRAF^V600E mutant lines A375, Colo205, and HT29; KRAS^G12C-mutant cell line MIAPACa-2; KRAS^G13D-mutant cell line HCT116; and AN3Ca with atypical HRAS^F82L mutation. Changes in protein levels are shown as a percentage change from dimethyl sulfoxide (DMSO)-treated parental control (FIG. 32A and Table 23).

AN3Ca = assay: Reverse Phase Protein Analysis (RPPA); assay type: cell-based; conditions: % change from DMSO (matched cell line)
In short: (§1)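 Cells were treated 6 h before lysis, with 0.1% (v/v) DMSO as control. Lysates were analysed by reverse-phase protein microarray. Protein changes are expressed as percentage change from DMSO-treated parental cells.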

HT29 = assay: Reverse Phase Protein Analysis (RPPA); assay type: cell-based; conditions: % change from DMSO (matched cell line)
In short: as §1

MIAPaCa-2 = assay: Reverse Phase Protein Analysis (RPPA); assay type: cell-based; conditions: MIAPaca2; % change from DMSO (matched cell line)
Colo205 = assay: Reverse Phase Protein Analysis (RPPA); assay type: cell-based, human; conditions: % change from DMSO (matched cell line)

Cc1cnc(Nc2ccc(F)cc2Cl)nc1-c1c[nH]c(C(=O)N[C@H](CO)c2cccc(Cl)c2)c1 [Vx-11e]
pERK1/2 (ERK1/2-T202, -Y204) [1]: markedly increased pERK1/2
Avg (4ebp1 T70) (AN3Ca): 16.67%
Avg (Akt S473) (AN3Ca): 56.17%
Avg (Akt) (AN3Ca): −24.62%
Avg (Bad S136) (AN3Ca): −3.81%
Avg (Bad S155) (AN3Ca): 4.59%
Avg (Bak) (AN3Ca): −1.6%
Avg (Bax) (AN3Ca): −7.89%
Avg (Bcl 2) (AN3Ca): −18.77%
Avg (Bcl2 S70) (AN3Ca): −14.39%
Avg (Bcl 2 T56) (AN3Ca): −11.73%
Avg (Bim) (AN3Ca): −1.46%
Avg (CREB S133) (AN3Ca): 0.16%
Avg (Caspase 3 CL D175) (AN3Ca): −12.7%
Avg (Caspase 7 Cl D198) (AN3Ca): −8.09%
Avg (Chk1) (AN3Ca): −0.46%
Avg (Chk1 S345) (AN3Ca): −9.54%
Avg (Cyclin D1) (AN3Ca): −9.59%
Avg (ERK 1 2) (AN3Ca): −11.27%
Avg (ERK 1 2 T202 Y204) (AN3Ca): 718.94%
Avg (MAK1 S360) (AN3Ca): 6.83%
Avg (Mcl1) (AN3Ca): −4.24%
Avg (Raptor S792) (AN3Ca): 0.37%
Avg (Raptor) (AN3Ca): −2.47%
Avg (Rictor) (AN3Ca): 0.02%
Avg (Stat1) (AN3Ca): −0.83%
Avg (Stat3) (AN3Ca): −7.67%
Avg (bad S112) (AN3Ca): −45.63%
Avg (c Fos) (AN3Ca): −5.52%
Avg (c Myc) (AN3Ca): −5.47%
Avg (mTOR S2448) (AN3Ca): −2.37%
Avg (mTOR S2481) (AN3Ca): 7.22%
Avg (mTOR) (AN3Ca): −6.27%
Avg (p70 S6 Kinase) (AN3Ca): −2.33%
Avg (p90 RSK S380) (AN3Ca): −28.41%
Avg(S6 Ribo Prot S235 236) (AN3Ca): −18.54%
Avg(S6 Ribo Prot S240 244) (AN3Ca): −12.55%
Avg(Tuberin TSC2 Y1571) (AN3Ca): 3.8%
Avg(p70 S6 Kinase S371 S394) (AN3Ca): 44.04%
Avg(p70 S6 Kinase T389 T412) (AN3Ca): 0.56%
Avg (4ebp1 T70) (HT29): −2.89%
Avg (Akt S473) (HT29): −20.5%
Avg (Akt) (HT29): −17.84%
Avg (Bad S136) (HT29): 5.53%
Avg (Bad S155) (HT29): −11.26%
Avg (Bak) (HT29): 2.69%
Avg (Bax) (HT29): −18.47%
Avg (Bcl 2) (HT29): −16.73%
Avg (Bcl2 S70) (HT29): −12.55%
Avg (Bcl 2 T56) (HT29): −25.01%
Avg (Bim) (HT29): 3.12%
Avg (CREB S133) (HT29): 14.16%
Avg (Caspase 3 CL D175) (HT29): −2.86%
Avg (Caspase 7 Cl D198) (HT29): 8.28%
Avg (Chk1) (HT29): 4.68%
Avg (Chk1 S345) (HT29): 6.44%
Avg (Cyclin D1) (HT29): −35.2%
Avg (ERK 1 2) (HT29): 0.24%
Avg (ERK 1 2 T202 Y204) (HT29): 435.68%
Avg (MAK1 S360) (HT29): 5.64%
Avg (Mcl1) (HT29): 1.36%
Avg (Raptor S792) (HT29): −2.13%
Avg (Raptor) (HT29): −6.53%
Avg (Rictor) (HT29): −2.6%
Avg (Stat1) (HT29): 4.29%
Avg (Stat3) (HT29): −4.28%
Avg (bad S112) (HT29): −35.62%
Avg (c Fos) (HT29): −8.23%
Avg (c Myc) (HT29): 10.71%
Avg (mTOR S2448) (HT29): −13.94%
Avg (mTOR S2481) (HT29): 0.52%
Avg (mTOR) (HT29): 16.94%
Avg (p70 S6 Kinase) (HT29): −1.72%
Avg (p90 RSK S380) (HT29): −43.41%
Avg(S6 Ribo Prot S235 236) (HT29): −32.8%
Avg(S6 Ribo Prot S240 244) (HT29): −24.35%
Avg(Tuberin TSC2 Y1571) (HT29): 2.85%
Avg(p70 S6 Kinase S371 S394) (HT29): −22.86%
Avg(p70 S6 Kinase T389 T412) (HT29): −12.31%
Avg (4ebp1 T70) (MIAPaCa-2): −15.72%
Avg (Akt S473) (MIAPaCa-2): 0.48%
Avg (Akt) (MIAPaCa-2): −0.15%
Avg (Bad S136) (MIAPaCa-2): 0.36%
Avg (Bad S155) (MIAPaCa-2): 7.38%
Avg (Bak) (MIAPaCa-2): −1.93%
Avg (Bax) (MIAPaCa-2): 4.33%
Avg (Bcl 2) (MIAPaCa-2): −2.3%
Avg (Bcl2 S70) (MIAPaCa-2): −7.83%
Avg (Bcl 2 T56) (MIAPaCa-2): −9.86%
Avg (Bim) (MIAPaCa-2): 2.1%
Avg (CREB S133) (MIAPaCa-2): −13.28%
Avg (Caspase 3 CL D175) (MIAPaCa-2): 6.17%
Avg (Caspase 7 Cl D198) (MIAPaCa-2): −0.32%
Avg (Chk1) (MIAPaCa-2): −1.8%
Avg (Chk1 S345) (MIAPaCa-2): 2.09%
Avg (Cyclin D1) (MIAPaCa-2): −33.96%
Avg (ERK 1 2) (MIAPaCa-2): −14.85%
Avg (ERK 1 2 T202 Y204) (MIAPaCa-2): 729.27%
Avg (MAK1 S360) (MIAPaCa-2): −0.87%
Avg (Mcl1) (MIAPaCa-2): −6.58%
Avg (Raptor S792) (MIAPaCa-2): −3.74%
Avg (Raptor) (MIAPaCa-2): 5.4%
Avg (Rictor) (MIAPaCa-2): −13.24%
Avg (Stat1) (MIAPaCa-2): −1.64%
Avg (Stat3) (MIAPaCa-2): 0.61%
Avg (bad S112) (MIAPaCa-2): −20.85%
Avg (c Fos) (MIAPaCa-2): −4.43%
Avg (c Myc) (MIAPaCa-2): −5.94%
Avg (mTOR S2448) (MIAPaCa-2): −5.38%
Avg (mTOR S2481) (MIAPaCa-2): −3.12%
Avg (mTOR) (MIAPaCa-2): −1.58%
Avg (p70 S6 Kinase) (MIAPaCa-2): −9.27%
Avg (p90 RSK S380) (MIAPaCa-2): −39.91%
Avg(S6 Ribo Prot S235 236) (MIAPaCa-2): −63.36%
Avg(S6 Ribo Prot S240 244) (MIAPaCa-2): −74.82%
Avg(Tuberin TSC2 Y1571) (MIAPaCa-2): −0.01%
Avg(p70 S6 Kinase S371 S394) (MIAPaCa-2): −30.35%
Avg(p70 S6 Kinase T389 T412) (MIAPaCa-2): −30.66%
Avg (4ebp1 T70) (Colo205): −43.71%
Avg (Akt S473) (Colo205): −10.96%
Avg (Akt) (Colo205): −12.51%
Avg (Bad S136) (Colo205): −1.01%
Avg (Bad S155) (Colo205): −9.72%
Avg (Bak) (Colo205): −2.79%
Avg (Bax) (Colo205): −9.16%
Avg (Bcl 2) (Colo205): −14.09%
Avg (Bcl2 S70) (Colo205): −20.82%
Avg (Bcl 2 T56) (Colo205): −12.02%
Avg (Bim) (Colo205): 34.1%
Avg (CREB S133) (Colo205): −10.64%
Avg (Caspase 3 CL D175) (Colo205): −2.67%
Avg (Caspase 7 Cl D198) (Colo205): 0.03%
Avg (Chk1) (Colo205): −9.16%
Avg (Chk1 S345) (Colo205): 13.12%
Avg (Cyclin D1) (Colo205): −39.79%
Avg (ERK 1 2) (Colo205): −12.32%
Avg (ERK 1 2 T202 Y204) (Colo205): 98.48%
Avg (MAK1 S360) (Colo205): 6.22%
Avg (Mcl1) (Colo205): −10.64%
Avg (Raptor S792) (Colo205): 0.2%
Avg (Raptor) (Colo205): −0.05%
Avg (Rictor) (Colo205): 1.65%
Avg (Stat1) (Colo205): −6.1%
Avg (Stat3) (Colo205): −7.96%
Avg (bad S112) (Colo205): −30.28%
Avg (c Fos) (Colo205): −19.34%
Avg (c Myc) (Colo205): −7.42%
Avg (mTOR S2448) (Colo205): −8.52%
Avg (mTOR S2481) (Colo205): −9.43%
Avg (mTOR) (Colo205): 3.62%
Avg (p70 S6 Kinase) (Colo205): −3.42%
Avg (p90 RSK S380) (Colo205): −58.6%
Avg(S6 Ribo Prot S235 236) (Colo205): −93.04%
Avg(S6 Ribo Prot S240 244) (Colo205): −94.89%
Avg(Tuberin TSC2 Y1571) (Colo205): −9.45%
Avg(p70 S6 Kinase S371 S394) (Colo205): −13.64%
Avg(p70 S6 Kinase T389 T412) (Colo205): −28%
